Assay results taken from PubChem BioAssay AID2060888 (Molecular Pharmacology Branch, DTP, NCI, 2025).

Test system: 695427-040-R-J1-PDC complex spheroid viability
Assay: Anticancer human tumor 695427-040-R-J1-PDC patient-derived colon adenocarcinoma cell line growth inhibition [RAS]
Conditions: for IC50: curve of first compound; for viability, T/C: stronger effect = lower value
Summary of the method: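 Tumour cells grown as complex spheroids with HUVEC endothelial cells and mesenchymal stem cells, treated with RAS pathway inhibitor combinations. Each agent spans half-log steps from near clinical Cmax, or 10 microM where Cmax is unknown.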

[1] = second compound 0.000949 µM, first compound 0.0316 µM
[2] = second compound 0.000949 µM, first compound 0.1 µM
[3] = second compound 0.000949 µM, first compound 0.316 µM
[4] = second compound 0.000949 µM, first compound 1 µM
[5] = second compound 0.003 µM, first compound 0.0316 µM
[6] = second compound 0.003 µM, first compound 0.1 µM
[7] = second compound 0.003 µM, first compound 0.316 µM
[8] = second compound 0.003 µM, first compound 1 µM
[9] = second compound 0.00949 µM, first compound 0.0316 µM
[10] = second compound 0.00949 µM, first compound 0.1 µM
[11] = second compound 0.00949 µM, first compound 0.316 µM
[12] = second compound 0.00949 µM, first compound 1 µM
[13] = second compound 0.03 µM, first compound 0.0316 µM
[14] = second compound 0.03 µM, first compound 0.1 µM
[15] = second compound 0.03 µM, first compound 0.316 µM
[16] = second compound 0.03 µM, first compound 1 µM
[17] = second compound 0.0949 µM, first compound 0.0316 µM
[18] = second compound 0.0949 µM, first compound 0.1 µM
[19] = second compound 0.0949 µM, first compound 0.316 µM
[20] = second compound 0.0949 µM, first compound 1 µM
[21] = second compound 0.3 µM, first compound 0.0316 µM
[22] = second compound 0.3 µM, first compound 0.1 µM
[23] = second compound 0.3 µM, first compound 0.316 µM
[24] = second compound 0.3 µM, first compound 1 µM
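Also: viability read after seven days of drug exposure.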
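For viability, T/C in this document: 100% = DMSO vehicle control viability.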

With `CC(=O)OC12COC1CC(O)C1(C)C(=O)C(O)C3=C(C)C(OC(=O)C(O)C(NC(=O)OC(C)(C)C)c4ccccc4)CC(O)(C(OC(=O)c4ccccc4)C21)C3(C)C` (centres undefined) + CCn1c(-c2cc(N3CCN(C)CC3)cnc2C(C)OC)c2c3cc(ccc31)-c1csc(n1)CC(NC(=O)C1CC1C)C(=O)N1CCCC(N1)C(=O)OCC(C)(C)C2 the IC50 (second compound 0.000949 µM) was over 10000 nM, the IC50 (second compound 0.003 µM) was over 10000 nM and the IC50 (second compound 0.00949 µM) was 292 nM. The IC50 (second compound 0.03 µM) was 36.3 nM, the IC50 (second compound 0.0949 µM) was under 31.6 nM and the IC50 (second compound 0.3 µM) was under 31.6 nM. The viability, T/C [1] was 78.2%, the viability, T/C [2] was 73.5% and the viability, T/C [3] was 68.7%. The viability, T/C [4] was 57.2%, the viability, T/C (second compound 0.000949 µM, first compound 3.16 µM) was 73.5% and the viability, T/C (second compound 0.000949 µM, first compound 10 µM) was 52.7%. The viability, T/C [5] was 81.4%, the viability, T/C [6] was 70.2% and the viability, T/C [7] was 59.7%. For the same compound, the viability, T/C [8] was 60.6%, the viability, T/C (second compound 0.003 µM, first compound 3.16 µM) was 56.5% and the viability, T/C (second compound 0.003 µM, first compound 10 µM) was 65.4%. It also gave a viability, T/C [9] of 75.3%, a viability, T/C [10] of 53.5% and a viability, T/C [11] of 52.1%. It also gave a viability, T/C [12] of 44.7%, a viability, T/C (second compound 0.00949 µM, first compound 3.16 µM) of 49.7% and a viability, T/C (second compound 0.00949 µM, first compound 10 µM) of 34.3%. For the same compound, the viability, T/C [13] was 58.1%, the viability, T/C [14] was 38.6% and the viability, T/C [15] was 42.1%. The viability, T/C [16] was 44.8%, the viability, T/C (second compound 0.03 µM, first compound 3.16 µM) was 42.9% and the viability, T/C (second compound 0.03 µM, first compound 10 µM) was 36.3%. The viability, T/C [17] was 36.5%, the viability, T/C [18] was 36.6% and the viability, T/C [19] was 36.4%. The viability, T/C [20] was 33.3%, the viability, T/C (second compound 0.0949 µM, first compound 3.16 µM) was 32.4% and the viability, T/C (second compound 0.0949 µM, first compound 10 µM) was 29.6%. For the same compound, the viability, T/C [21] was 35.2%, the viability, T/C [22] was 28.4% and the viability, T/C [23] was 33.9%. It also gave a viability, T/C [24] of 26.9%, a viability, T/C (second compound 0.3 µM, first compound 3.16 µM) of 30.9% and a viability, T/C (second compound 0.3 µM, first compound 10 µM) of 27.1%.
`Nc1ccn(C2OC(CO)C(O)C2(F)F)c(=O)n1` (centres undefined) + CCn1c(-c2cc(N3CCN(C)CC3)cnc2C(C)OC)c2c3cc(ccc31)-c1csc(n1)CC(NC(=O)C1CC1C)C(=O)N1CCCC(N1)C(=O)OCC(C)(C)C2 was tested, and the IC50 (second compound 0.000949 µM) was over 1000 nM, the IC50 (second compound 0.003 µM) was 524 nM and the IC50 (second compound 0.00949 µM) was 593 nM. The IC50 (second compound 0.03 µM) was 112 nM, the IC50 (second compound 0.0949 µM) was under 3.16 nM and the IC50 (second compound 0.3 µM) was under 3.16 nM. The viability, T/C (second compound 0.000949 µM, first compound 0.00316 µM) was 69.9%, the viability, T/C (second compound 0.000949 µM, first compound 0.01 µM) was 97.5% and the viability, T/C [1] was 81.8%. The viability, T/C [2] was 69.3%, the viability, T/C [3] was 67% and the viability, T/C [4] was 54.2%. The viability, T/C (second compound 0.003 µM, first compound 0.00316 µM) was 109%, the viability, T/C (second compound 0.003 µM, first compound 0.01 µM) was 88.6% and the viability, T/C [5] was 78.5%. The viability, T/C [6] was 66.2%, the viability, T/C [7] was 54.5% and the viability, T/C [8] was 44.2%. For the same compound, the viability, T/C (second compound 0.00949 µM, first compound 0.00316 µM) was 80%, the viability, T/C (second compound 0.00949 µM, first compound 0.01 µM) was 77.7% and the viability, T/C [9] was 60.9%. For the same compound, the viability, T/C [10] was 58.5%, the viability, T/C [11] was 57.5% and the viability, T/C [12] was 45.3%. The viability, T/C (second compound 0.03 µM, first compound 0.00316 µM) was 56.4%, the viability, T/C (second compound 0.03 µM, first compound 0.01 µM) was 63.1% and the viability, T/C [13] was 52.2%. It also gave a viability, T/C [14] of 47.1%, a viability, T/C [15] of 48.4% and a viability, T/C [16] of 37.5%. The viability, T/C (second compound 0.0949 µM, first compound 0.00316 µM) was 42.4%, the viability, T/C (second compound 0.0949 µM, first compound 0.01 µM) was 47.1% and the viability, T/C [17] was 40.6%. For the same compound, the viability, T/C [18] was 36%, the viability, T/C [19] was 25.7% and the viability, T/C [20] was 30.1%. The viability, T/C (second compound 0.3 µM, first compound 0.00316 µM) was 34.5%, the viability, T/C (second compound 0.3 µM, first compound 0.01 µM) was 40.1% and the viability, T/C [21] was 34.8%. For the same compound, the viability, T/C [22] was 33.1%, the viability, T/C [23] was 31.6% and the viability, T/C [24] was 26.5%.
